Test results from ChEMBL document CHEMBL3046846, “Synthesis of N-Alkyl-2, 3-dimethyl-5-[N-(5-halo-2-methylphenyl)carbamoyl]-6-pyrazinecarboxamides and Their Herbicidal Activity” (J Pestic Sci, 1997).

Key:
Veronica persica [1] = experiment: Herbicidal activity against Veronica persica at 500 g/ha after 2 weeks; type: functional
Galium spurium [2] = experiment: Herbicidal activity against Galium spurium var. echinospermon (Wally.) Hayek at 500 g/ha after 2 weeks; type: functional
Xanthium strumarium [3] = experiment: Herbicidal activity against Xanthium strumarium (cocklebur) 500 g/ha after 2 weeks; type: functional
Abutilon theophrasti [4] = experiment: Herbicidal activity against Abutilon theophrasti (velvetleaf) at 500 g/ha after 2 weeks; type: functional
Avena fatua [5] = experiment: Herbicidal activity against Avena fatua at 500 g/ha after 2 weeks; type: functional
Echinochloa crus-galli [6] = experiment: Herbicidal activity against Echinochloa crus-galli (barnyard grass) at 500 g/ha after 2 weeks; type: functional
Glycine max [7] = experiment: Herbicidal activity against Glycine max (soybean) at 500 g/ha after 2 weeks; type: organism-based; settings: in vivo, 336 h
Triticum aestivum [8] = experiment: Herbicidal activity against Triticum aestivum (wheat) at 500 g/ha after 2 weeks; type: ADME, organism-based; settings: in vivo, 336 h
Veronica persica [9] = experiment: Herbicidal activity against Veronica persica at 250 g/ha after 2 weeks; type: functional
Galium spurium [10] = experiment: Herbicidal activity against Galium spurium var. echinospermon (Wally.) Hayek at 250 g/ha after 2 weeks; type: functional
Xanthium strumarium [11] = experiment: Herbicidal activity against Xanthium strumarium (cocklebur) 250 g/ha after 2 weeks; type: functional
Abutilon theophrasti [12] = experiment: Herbicidal activity against Abutilon theophrasti (velvetleaf) at 250 g/ha after 2 weeks; type: functional
Echinochloa crus-galli [13] = experiment: Herbicidal activity against Echinochloa crus-galli (barnyard grass) at 250 g/ha after 2 weeks; type: functional
Avena fatua [14] = experiment: Herbicidal activity against Avena fatua at 250 g/ha after 2 weeks; type: functional
Glycine max [15] = experiment: Herbicidal activity against Glycine max (soybean) at 250 g/ha after 2 weeks; type: organism-based; settings: in vivo, 336 h
Triticum aestivum [16] = experiment: Herbicidal activity against Triticum aestivum (wheat) at 250 g/ha after 2 weeks; type: organism-based; settings: in vivo, 336 h
Veronica persica [17] = experiment: Herbicidal activity against Veronica persica at 5000 g/ha after 2 weeks; type: functional
Galium spurium [18] = experiment: Herbicidal activity against Galium spurium var. echinospermon (Wally.) Hayek at 5000 g/ha after 2 weeks; type: functional
Xanthium strumarium [19] = experiment: Herbicidal activity against Xanthium strumarium (cocklebur) 5000 g/ha after 2 weeks; type: functional
Abutilon theophrasti [20] = experiment: Herbicidal activity against Abutilon theophrasti (velvetleaf) at 5000 g/ha after 2 weeks; type: functional
Echinochloa crus-galli [21] = experiment: Herbicidal activity against Echinochloa crus-galli (barnyard grass) at 5000 g/ha after 2 weeks; type: functional
Avena fatua [22] = experiment: Herbicidal activity against Avena fatua at 5000 g/ha after 2 weeks; type: functional
Glycine max [23] = experiment: Herbicidal activity against Glycine max (soybean) at 5000 g/ha after 2 weeks; type: organism-based; settings: in vivo, 336 h
Triticum aestivum [24] = experiment: Herbicidal activity against Triticum aestivum (wheat) at 5000 g/ha after 2 weeks; type: ADME, organism-based; settings: in vivo, 336 h

SMILES | Activity (Veronica persica [1]) | Activity (Galium spurium [2]) | Activity (Abutilon theophrasti [4]) | Activity (Avena fatua [5]) | Activity (Echinochloa crus-galli [6]) | Activity (Glycine max [7]) | Activity (Triticum aestivum [8]) | Activity (Veronica persica [9]) | Activity (Galium spurium [10]) | Activity (Xanthium strumarium [11]) | Activity (Abutilon theophrasti [12]) | Activity (Echinochloa crus-galli [13]) | Activity (Veronica persica [17]) | Activity (Galium spurium [18]) | Activity (Xanthium strumarium [19]) | Activity (Abutilon theophrasti [20]) | Activity (Echinochloa crus-galli [21]) | Activity (Avena fatua [22]) | Activity (Glycine max [23]) | Activity (Triticum aestivum [24]) | other results
Cc1ccc(Cl)cc1NC(=O)c1nc(C)c(C)nc1C(=O)NC(C)(C)C | 70% | <10% | <10% | <10% | <10% | < 10% | < 10% | 10% | <10% | <10% | <10% | <10% | 95% | 30% | 95% | 95% | 70% | <10% | < 10% | 10% | Activity (Xanthium strumarium [3]): <10%; Activity (Avena fatua [14]): <10%; Activity (Glycine max [15]): < 10%; Activity (Triticum aestivum [16]): < 10%
CCNC(=O)c1nc(C)c(C)nc1C(=O)Nc1cc(F)ccc1C | – | – | – | – | – | – | – | – | – | – | – | – | 95% | <10% | 70% | 50% | <10% | 10% | < 10% | < 10% | –
CC[C@@H](C)NC(=O)c1nc(C)c(C)nc1C(=O)Nc1cc(Cl)ccc1C | 95% | <10% | <10% | <10% | <10% | < 10% | < 10% | 70% | <10% | <10% | <10% | <10% | 95% | 95% | 95% | 95% | 95% | 30% | < 10% | 30% | Activity (Xanthium strumarium [3]): <10%; Activity (Avena fatua [14]): <10%; Activity (Glycine max [15]): < 10%; Activity (Triticum aestivum [16]): < 10%
CNC(=O)c1nc(C)c(C)nc1C(=O)Nc1cc(Cl)ccc1C | – | – | – | – | – | – | – | – | – | – | – | – | 95% | 10% | <10% | <10% | 10% | <10% | < 10% | 10% | –
CNC(=O)c1nc(C)c(C)nc1C(=O)Nc1cc(F)ccc1C | – | – | – | – | – | – | – | – | – | – | – | – | 50% | <10% | <10% | <10% | <10% | <10% | < 10% | < 10% | –
CCC(C)NC(=O)c1nc(C)c(C)nc1C(=O)Nc1cc(F)ccc1C (racemic) | 95% | <10% | 95% | <10% | <10% | < 10% | 30% | 95% | <10% | <10% | 95% | <10% | 95% | 95% | 95% | 95% | 30% | 30% | < 10% | 50% | Activity (Avena fatua [14]): <10%; Activity (Glycine max [15]): < 10%; Activity (Triticum aestivum [16]): < 10%
CCCCCNC(=O)c1nc(C)c(C)nc1C(=O)Nc1cc(F)ccc1C | – | – | – | – | – | – | – | – | – | – | – | – | 30% | <10% | <10% | 30% | 30% | <10% | < 10% | < 10% | –
Cc1ccc(F)cc1NC(=O)c1nc(C)c(C)nc1C(=O)NCCC(C)C | – | – | – | – | – | – | – | – | – | – | – | – | 95% | <10% | <10% | 95% | 30% | 30% | < 10% | 10% | –
